*1 amine or outer side, *2 acyl side, *3 side chain or, on linkers, in order; H or OH if unused. Where a SMILES comes first, the peptide text is derived from it. Side-chain parts run from the residue outwards. [ ]: non-standard residue; d: D form. The star is where a group is joined. Ethylenediamine = C(CN[*:2])N[*:1]; Hyp = O=C(O)[CH]1C[CH](O)CN1; Phg = N[CH](C(=O)O)c1ccccc1; CO = O=C([*:1])[*:2]; Bn = c1ccc(C*)cc1
Test system: Liver left lateral lobe
Assay: Microarray gene expression profiling (HG-U95A), liver
Type: in vivo, cynomolgus monkeys
Procedure: Origin of tissue and processing. Male and female cynomolgus monkeys received subcutaneously pasireotide (100 μg/animal/day) or the vehicle for 14 days. On day 15, all animals were sacrificed and tissues for RNA extraction were immediately snap-frozen and kept at −80° C. until processing.
RNA expression profiling was conducted by means of the HG-U95A gene expression probe array (Affymetrix; Santa Clara, Calif. USA), containing more than 12,600 probe sets interrogating primarily full-length human genes and also some control probe sets. The experiment was conducted according to the recommendations of the manufacturer. Briefly, total RNA was obtained by acid guanidinium thiocyanate-phenol-chloroform extraction (Trizol®, Invitrogen Life Technologies, San Diego, Calif. USA) from each frozen tissue section. The total RNA was then purified on an affinity resin (Rneasy®, Qiagen) and quantified. Double stranded cDNA was synthesized with a starting amount of approximately 5 μg full-length total RNA using the Superscript® Choice System (Invitrogen Life Technologies, Carlsbad, Calif. USA) in the presence of a T7-(dT)24 DNA oligonucleotide primer. Following synthesis, the cDNA was purified by phenol/chloroform/isoamyl alcohol extraction and ethanol precipitation. The purified cDNA was then transcribed in vitro using the BioArray® High Yield RNA Transcript Labeling Kit (ENZO, Farmingdale, N.Y. USA) in the presence of biotinylated ribonucleotides form biotin labelled cRNA. The labelled cRNA was then purified on an affinity resin (Rneasy®, Qiagen), quantified and fragmented. An amount of approximately 10 μg labelled cRNA was hybridized for 16 hours at 45° C. to an expression probe array. The array was then washed and stained twice with streptavidin-phycoerythrin (Molecular Probes,) using the GeneChip® Fluidics Workstation 400 (Affymetrix, Santa Clara, Calif. USA). The array was then scanned twice using a confocal laser scanner (GeneArray® Scanner, Agilent, Palo Alto, Calif. USA) resulting in one scanned image. This resulting “.dat-file” was processed using the MAS4 program (Affymetrix) into a “.cel-file”. The “.cel file” was captured and loaded into the Affymetrix GeneChip® Laboratory Information Management System (LIMS). The LIMS database is connected to a UNIX Sun Solaris server through a network filing system that allows for the average intensities for all probes cells (CEL file) to be downloaded into an Oracle database (NPGN). Raw data was converted to expression levels using a “target intensity” of 150. The data were evaluated for quality control and loaded in the GeneSpring® software 4.2.4 (Silicon Genetics, Calif. USA) for analysis.
On the human Affymetrix HGU95Av2 chip, probe sets for individual genes contain 20 oligonucleotide pairs, each composed of a “perfect match” 25-mer and a “mismatch” 25-mer differing from the “perfect” match oligonucleotide at a single base. After probe labelling, hybridization, and laser scanning, the expression level was estimated by averaging the differences in signal intensity measured by oligonucleotide pairs of a given probe (AvgDiff value). The fold changes and directions were calculated for selected genes, from the differences of the AvgDiff values between controls and treated.
To identify genes that were impacted by pasireotide, the dataset was initially filtered to exclude in a first wave of analysis, genes whose values were systematically in the lower expression ranges where the experimental noise is high (at least 80 in a number of experiments corresponding to the smallest number of replicas of any experimental point). In a second round of selection a threshold p-value of 0.05 (based on a t-test) identified differences between treated and control based on a two component error model (Global Error Model) and, whenever possible, with a stepdown correction for multi-hypothesis testing (Benjamini and Hochberg false discovery rate). […]

[1] = ↑ increase, treated vs controls
[2] = ↓ decrease, treated vs controls

NCCCCC1NC(=O)C(Cc2c[nH]c3ccccc23)NC(=O)C(c2ccccc2)NC(=O)C2CC(OC(=O)NCCN)CN2C(=O)C(Cc2ccccc2)NC(=O)C(Cc2ccc(OCc3ccccc3)cc2)NC1=O (stereo not drawn) [Pasireotide, cyclo[4-(NH2—C2H4—NH—CO—O)Pro-Phg-DTrp-Lys-Tyr(4-Bzl)-Phe]] (cyclo(F[Hyp]([CO-Ethylenediamine])[Phg]WKY(Bn)); configuration not given here)
GR expression level, AvgDiff (range) (0.1 mg/animal/14day): 80 (70 to 360)
IGF-2 expression level, AvgDiff (range) (0.1 mg/animal/14day): 269 (224 to 291)
IGFBP2 expression level, AvgDiff (range) (0.1 mg/animal/14day): 4,476 (3,191 to 5,422)
Insulin promoter factor 1, homeodomain transcription factor expression level, AvgDiff (range) (0.1 mg/animal/14day): 42 (23 to 52)
5-hydroxytryptamine (serotonin) receptor 6 RNA expression fold change [1]: receptor 6 ↑ x2.5
Adenylyl cyclase-associated protein RNA expression fold change [1]: ↑ x1.5
Arginine vasopressin receptor 2 RNA expression fold change [1]: receptor 2 ↑ x2.5
B lymphoid tyrosine kinase RNA expression fold change [1]: ↑ x3.5
Bone-derived GF RNA expression fold change [1]: ↑ x3
Bruton agamma globulinaemia tyrosine kinase RNA expression fold change [1]: ↑ x1.5
Butyrate response factor 2 (EGF-response factor 2) RNA expression fold change [1]: factor 2) ↑ x2
Calcium/calmodulin-dependent protein kinase kinase 2, β RNA expression fold change [1]: ↑ x3
Calmodulin 2 (phosphorylase kinase, δ) RNA expression fold change [1]: kinase, δ) ↑ x2
Cdk 5, regulatory subunit 1 RNA expression fold change [1]: subunit 1 ↑ x2.5
Cdki1A (p21/Cip1) RNA expression fold change [1]: (p21/Cip1) ↑ x6
Corticosteroid binding globulin precursor RNA expression fold change [1]: precursor ↑ x2
DAG kinase, α (80 kD) RNA expression fold change [1]: (80 kD) ↑ x3
DAG kinase, δ (130 kD) RNA expression fold change [1]: ↑ x1.5
Dopamine receptor D2 RNA expression fold change [1]: receptor D2 ↑ x3.5
Dopamine receptor D3 RNA expression fold change [1]: receptor D3 ↑ x2
EGFR (avian erythroblastic leukaemia viral (v-erb-b) oncogene homolog) RNA expression fold change [1]: homolog) ↑ x2
FGFR2 (bacteria-expressed kinase, keratinocyte growth factor receptor, craniofacial dysplasia) RNA expression fold change [1]: dysplasia) ↑ x2
Fas-activated serine/threonine kinase RNA expression fold change [1]: kinase ↑ x1.5
GABA (A) receptor, γ2 precursor RNA expression fold change [1]: precursor ↑ x4
GABA(A) receptor-associated protein RNA expression fold change [1]: ↑ x1.5
GCSF RNA expression fold change [1]: GCSF ↑ x3.5
Glucacon receptor RNA expression fold change [1]: receptor ↑ x5
Glutamate receptor, metabotropic 4 RNA expression fold change [1]: ↑ x1.5
Growth differentiation factor 1 RNA expression fold change [1]: factor 1 ↑ x3
IFN regulatory factor 5 RNA expression fold change [1]: factor 5 ↑ x2.5
IFN-induced leucine zipper protein RNA expression fold change [1]: ↑ x1.5
IFN-inducible RNA-dependent protein kinase RNA expression fold change [1]: kinase ↑ x4
IFNγ responsive transcript RNA expression fold change [1]: transcript ↑ x1.5
IGFBP2 RNA expression fold change [1]: IGFBP2 ↑ x2
IL2 R, γ chain, precursor RNA expression fold change [1]: precursor ↑ x2.5
IP 5-phosphatase RNA expression fold change [1]: phosphatase ↑ x2
Natriuretic peptide receptor A/guanylate cyclase A (atrionatriuretic peptide receptor A) RNA expression fold change [1]: A) ↑ x6
Nck, Ash and PLC γ binding protein NAP4 RNA expression fold change [1]: ↑ x3.5
PDGF, α polypeptide RNA expression fold change [1]: polypeptide ↑ x1.5
PDGFR, α polypeptide RNA expression fold change [1]: polypeptide ↑ x2
PI transfer protein RNA expression fold change [1]: protein ↑ x3.5
PKC substrate 80K-H RNA expression fold change [1]: 80K-H ↑ x1.5
PLA2, group IIA (platelets, synovial fluid) RNA expression fold change [1]: fluid) ↑ x5.5
PLC, γ 1 (formerly subtype 148) RNA expression fold change [1]: 148) ↑ x2
Rb binding protein RNA expression fold change [1]: protein ↑ x2.5
Rb-like 2 (p130) RNA expression fold change [1]: (p130)↑ x3
Receptor (calcitonin) activity modifying protein 1 precursor RNA expression fold change [1]: 1 precursor ↑ x1.5
Solute carrier family 9 (sodium/hydrogen exchanger), isoform 3 regulatory factor 1 RNA expression fold change [1]: ↑ x11.5
Solute carrier family 11 (Na+/phosphate symporters), member 1 RNA expression fold change [1]: member 1 ↑ x2.5
TGFβ activated kinase-binding protein 1 RNA expression fold change [1]: protein 1 ↑ x2.5
THR interacting protein 15 RNA expression fold change [1]: protein 15 ↑ x1.5
THR sulfo transferase RNA expression fold change [1]: transferase ↑ x2.5
TNF (ligand) superfamily, member 10 RNA expression fold change [1]: 10 ↑ x1.5
δ sleep inducing peptide, immunoreactor RNA expression fold change [1]: ↑ x2.5
1-PI-4-phosphate 5-kinase isoform C RNA expression fold change [2]: ↓ x2
ATPase, H+/K+ exchanging, beta polypeptide RNA expression fold change [2]: polypeptide ↓ x2
BCL2-like 1 RNA expression fold change [2]: ↓ x3.5
Ca++ channel, voltage-dependent, P/Q type, alpha 1A subunit RNA expression fold change [2]: subunit ↓ x2.5
Cdk like-2 RNA expression fold change [2]: Cdk like-2 ↓ x2
Cdki 2D (p19, inhibits CDK4) RNA expression fold change [2]: ↓ x2.5
Death-associated protein 6 RNA expression fold change [2]: ↓ x2.5
EGF (β-urogastrone) RNA expression fold change [2]: ↓ x2.5
EGF-like repeats and discoidin I-like domains 3 RNA expression fold change [2]: domains 3 ↓ x1.5
Fms-related tyrosine kinase 1(VEGF/vascular permeability factor receptor) RNA expression fold change [2]: receptor) ↓ x1.5
GFR-bound protein 2 RNA expression fold change [2]: protein 2 ↓ x2.5
Glycosylphosphatidylinositol specific phospholipase D1 RNA expression fold change [2]: ↓ x1.5
IFN-related developmental regulator 2 RNA expression fold change [2]: regulator 2 ↓ x1.5
IFN-stimulated protein, 15 kDa RNA expression fold change [2]: protein, 15 kDa ↓ x2
IGF-2 RNA expression fold change [2]: IGF-2 ↓ x2.5
Insulin promoter factor 1, homeodomain transcription factor RNA expression fold change [2]: ↓ x1.5
PI transfer protein, β RNA expression fold change [2]: protein, β ↓ x1.5
PKC, ι RNA expression fold change [2]: PKC, ι ↓ x1.5
Rb 1 (including osteosarcoma) RNA expression fold change [2]: ↓ x2
TGF, β1 RNA expression fold change [2]: TGF, β1 ↓ x1.5
TGFβR III (betaglycan, 300 kδ) RNA expression fold change [2]: 300 kδ) ↓ x2
TNF-α converting enzyme RNA expression fold change [2]: enzyme ↓ x2
